From article PMC8047729, “Identification of a nanomolar affinity α-synuclein fibril imaging probe by ultra-high throughput in silico screening” (Chemical Science, 2020)
Entries after “also recorded” stand apart in the source; their conditions may differ.

Tests used:
[1] = target: T1, αS fibrils, Site 2 ([^3H]Tg-190b) (Homo sapiens, UniProt P37840); test: Competition binding assay with Site 2 radioligand [^3H]Tg-190b on αS fibrils; conditions: αS fibrils 100 nM, [^3H]Tg-190b 6 nM, 1 h 37 °C; 95% confidence intervals in parentheses in Table 1 (n = 3)
Protocol: (§1) Fig. S10 Screening of SAR Library Derived from Compound 6. Site 2 radioligand competition binding assays with [3H]Tg-190b. ANOVA was performed with Dunnett’s multiple comparisons test, where […]
(§2) *P<0.0332, **P<0.0021, ***P<0.0002 and ****P<0.0001.
(§3) Competition binding assay. αS fibrils (100 nM for Site 2 and 50 nM for Site 9) were mixed with Site 2 ligand [3H]Tg-190b (6 nM) or Site 9 ligand [3H]BF2846 (3 nM) and varying concentrations of unlabeled compounds 2, 6, 24, 28, 31, 39, 40, or 52. Compounds were diluted in 50 mM Tris-HCl buffer (pH 7.4) and mixed with fibrils and radioligand in a total volume of 150 µL. Total binding was measured in the absence of competitor and nonspecific binding was determined in reactions containing unlabeled Tg-190b (1 µM) or BF2846 (0.5 µM). In a duplicate set of binding […]
(§4) binding to the filter paper. Reactions were incubated at 37 °C for 1 h. After incubation, bound […]
(§5) Filters containing the bound ligand were mixed with 3 mL of scintillation cocktail (MicroScint-20, PerkinElmer) and counted after 12 h of incubation on a MicroBeta System (PerkinElmer). All data points were acquired in triplicate.
(§6) (1 picture or pasted object on this page, not shown here)
(§7) The measured cpm values were converted to % specific binding as described by the equation […]
(§8) % specific binding = !"#$"#% "# ’() *+),)#-) ./ -.0*)’"’.+1#.#,*)-"/"- !"#$"#% ∗ 100 ’.’23 !"#$"#%1#.#,*)-"/"- !"#$"#%
(§9) IC50 values were calculated by fitting the data to Equation S1 below by non-linear regression, using GraphPad Prism software:
(§10) Y = Bottom + (Top-Bottom) / (1+ 10(813.%9:;<)) (S1) where logIC50 is the log of the concentration of competitor that results in binding half-way between Bottom and Top; Top and Bottom are plateaus in the units of Y axis; they are binding observed in the absence of competitor and in the presence of a maximal concentration of competitor, respectively. Binding curves for compounds 2 and 6 are shown in Fig. 2 in the main text and for compounds 6, 24, 28, 31, 39, 40, and 52 in Figs. S11 and S12.

[2] = target: αS fibrils, Site 9 ([^3H]BF2846) (Homo sapiens, UniProt P37840); test: Competition binding assay with Site 9 radioligand [^3H]BF2846 on αS fibrils; conditions: αS fibrils 50 nM, [^3H]BF2846 3 nM, 1 h 37 °C; 95% confidence intervals in parentheses (n = 3)
Protocol: as §1, §2, §3, §4, §5, §6, §7, §8, §9, §10

[3] = target: T1, αS fibrils, Site 2 ([^3H]Tg-190b); test: Single-concentration radioligand competition screen (100 nM compound) against [^3H]Tg-190b; assay type: binding; conditions: 100 nM αS fibrils, [^3H]Tg-190b 6 nM
Protocol: Compounds 1–17 were purchased from vendors that were listed on the ZINC15 compound library. […] Total binding was measured in the absence of competitor and nonspecific binding was determined in reactions containing unlabeled Tg-190b (1 μM) or BF2846 (0.5 μM). […] Filters containing the bound ligand were mixed with 3 mL of scintillation cocktail (MicroScint-20, PerkinElmer, Inc.) and counted after 12 h of incubation on a MicroBeta System (PerkinElmer, Inc.). All data points were measured in triplicate. Screening of compounds 18–56 for the SAR study was performed in a similar fashion.
In Vitro Radioligand Binding Assays
Screening compound library. Compounds 1-17 (Fig. S8) were purchased from vendors that were listed on the ZINC15 compound library. 3 Compounds were screened for αS binding and after identifying the lead compound, 6, the core structure of compound 6 and its pyrazole or oxadiazole derivatives were used for similarity search on the Mcule, Inc. website.12 The similarity threshold was set to higher than 0.8, then compound 18-56 (Fig. S9) were chosen and ordered from the four companies mentioned above.
In order to screen the purchased compounds for αS binding, 100 nM solutions of each compound (1-56) were incubated for 1 hour at 37 °C with 100 nM αS fibrils and [3H]Tg-190b (6 nM) or [3H]BF2846 (3 nM) in 50 mM Tris-HCl, pH 7.4. Total binding was measured in the absence of competitor and nonspecific binding was determined in reactions containing unlabeled Tg-190b (1 µM) or BF2846 (0.5 µM). After incubation, bound and free radioligand were […]
scintillation cocktail (MicroScint-20, PerkinElmer; Waltham, MA, USA) and counted after 12 h of incubation on a MicroBeta System (PerkinElmer). All data points were acquired in triplicate.
Percentage of bound radioligand relative to total binding was plotted and data was analyzed by One-Way ANOVA, comparing the mean of each data set to the mean of total binding. […]
are shown in Fig. 2 in the main text, and Fig. S8 and S10.

[4] = target: T2, αS fibrils (Homo sapiens, UniProt P37840); test: αS fibril disaggregation (stability) fluorescence polarization experiment; assay type: biochemical; conditions: 10 μM labeled fibrils; compound 6 at 10 and 100 μM, EGCG and NDGA at 100 μM
Protocol: (§11) Fluorescence Polarization and Photo -Crosslinking Assays
(§12) Aggregation and disaggregation fluorescence polarization experiments. Wild-type and αS with a fluorescein maleimide attached via Cys114 mutation were produced as previously described.10 Aggregations were performed at a total monomer concentration of 100 μM with 1% labeled αS in 20 mM Tris, 100 NaCl pH 7.4 in the presence of 10 and 100 μM compound 6 and with equivalent volume of DMSO as a control. At each timepoint, an aliquot of the fibrilization reaction was removed and diluted 10-fold in buffer. Fluorescence polarization (FP) was measured in a Greiner black 96 half-area well microplate (Greiner Bio-One North America Inc.; Monroe, NC, USA) at a total volume of 50 μL on a Tecan F200 plate reader (San Jose, CA, USA).
Aggregations were performed in triplicate.
Disaggregation experiments were performed on labeled fibril samples prepared as described above in the absence of compound. A final concentration of 10 μM fibrils was added to each well for each disaggregation experiment and compound 6, nordihydroguaiaretic acid (NDGA), epigallocatechin gallate (EGCG) or DMSO (1%) was added just prior to measurement to the final concentrations detailed in Fig. S3 and total volumes of 50 μL. Samples were shaken at 149 rpm at room temperature with FP measurements taken every 150 s. EGCG and NDGA […]
Fig. S5 Impact of Compound 6 on αS Fibril Stability. Assessment of potential remodeling of 1% labeled αS fibrils by (light-green) 10 and (dark-green) 100 μM compound 6 compared to (red) 100 μM EGCG and (blue) 100 μM NDGA as a positive control. DMSO administration volume-matched to that used for (grey) 10 and (black) 100 μM compound administration was used as a negative control. […]

[5] = target: αS aggregation (Homo sapiens, UniProt P37840); test: αS aggregation fluorescence polarization experiment; assay type: biochemical; conditions: 10 and 100 μM compound, 100 μM αS monomer with 1% labeled αS
Protocol: as §11, §12
Aggregations were performed in triplicate. […]
Fig. S4 Impact of Compound 6 on αS Aggregation. Aggregation of αS in the presence of 1% labeled monomer along with (light-green) 10 and (dark-green) 100 μM compound 6 monitored by (a) fluorescence polarization (FP) and (b) Congo Red absorbance. Aggregation in the presence of compound was compared to aggregation in the presence of volume matched addition of DMSO for (grey) 10 and (black) 100 μM […]
10 and (black) 100 μM compound administration was used as a negative control. […]

[6] = target: T2, αS fibrils

Compound | IC50 [1] [nM] | IC50 [2] [nM] | Binding in Site 2 radioligand competition screen (in words) [3] | other results
Cc1ccc(OCC(=O)Nc2cc(-c3ccccc3)no2)cc1C [Compound 52] | 30.7 | > 1000 | moderate to strong binding | –
COc1ccc(OCC(=O)Nc2cc(-c3ccc(Br)cc3)no2)cc1 [Compound 31] | 68.7 | 37 | moderate to strong binding | –
COc1ccc(OCC(=O)Nc2noc(-c3ccccc3)n2)cc1 [Compound 48] | – | – | bound more poorly than the corresponding isoxazole compound | –
O=C(COc1ccccc1)Nc1noc(-c2ccccc2)n1 [Compound 51] | – | – | bound more poorly than the corresponding isoxazole compound | –
O=C(COc1ccc(F)cc1)Nc1cc(-c2ccccc2)n[nH]1 [Compound 55] | – | – | moderate affinity | –
Cc1ccc(OCC(=O)Nc2cc(-c3ccc(F)cc3)no2)cc1C [Compound 6] | 9.49 | 109 | high affinity | Effect on stability of αS fibrils [4]: no apparent effect; also recorded: did not show any significant effect; Effect on rate of αS aggregation [5]: No significant effect; also recorded: did not show any significant effect
COc1ccc(OCC(=O)Nc2cc(-c3ccc(F)cc3)no2)cc1 [Compound 34] | – | – | moderate to strong binding | –
CC(Oc1ccc(F)cc1)C(=O)Nc1cc(-c2ccccc2)no1 (stereo not drawn) [Compound 23] | – | – | bind poorly | –
COc1ccc(OCC(=O)Nc2cc(-c3ccc(C)cc3)no2)cc1 [Compound 19] | – | – | moderate to strong binding | –
COc1ccc(OCC(=O)Nc2cc(-c3ccccc3)no2)cc1 [Compound 24] | 95.1 | 557 | moderate to strong binding | –
O=C(COc1ccc(F)cc1)Nc1cc(-c2ccccc2)no1 [Compound 25] | – | – | weak binders | –
Cc1ccc(N2CCN(c3cnn(-c4ccccc4)c(=O)c3Cl)CC2)cc1C [Compound 2] | 490 | – | – | –
O=C(O[C@@H]1Cc2c(O)cc(O)cc2O[C@@H]1c1cc(O)c(O)c(O)c1)c1cc(O)c(O)c(O)c1 [EGCG, epigallocatechin gallate, reference compound] | – | – | – | Effect on stability of αS fibrils [4]: disrupted fibril stability
COc1ccc(OCC(=O)Nc2cc(-c3ccc(F)c(F)c3)no2)cc1 [Compound 39] | 95.7 | > 1000 | moderate to strong binding | –
COc1ccccc1OCC(=O)Nc1cc(-c2ccccc2)no1 [Compound 27] | – | – | hinder binding | –
CC(Cc1ccc(O)c(O)c1)C(C)Cc1ccc(O)c(O)c1 (stereo not drawn) [NDGA, nordihydroguaiaretic acid, reference compound] | – | – | – | Effect on stability of αS fibrils [4]: disrupted fibril stability
Cc1ccc(OCC(=O)Nc2cc(-c3ccc(F)c(F)c3)no2)cc1C [Compound 40] | 19.6 | > 1000 | moderate to strong binding | –
O=C(COc1ccc(F)cc1)Nc1noc(-c2ccccc2)n1 [Compound 50] | – | – | bound more poorly than the corresponding isoxazole compound; also recorded: weak binders | –
Cc1ccc(OCC(=O)Nc2cc(-c3ccc(Br)cc3)no2)cc1C [Compound 28] | – | 12.6 | moderate to strong binding | –
Cc1ccc(OCC(=O)Nc2cc(-c3ccc(I)cc3)no2)cc1C [Compound 61] | – | – | – | Kd [6]: 1 nM; Selectivity for αS fibrils over amyloid β (Aβ42 fibrils) ([6]; from saturation binding Kd values): ~5 fold
